Test results reported in ChEMBL document CHEMBL1201862, “PubChem BioAssay data set” (2004).
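Dose response: 5 concentrations. Exposure: 48 h. Format: 96-well plates. Endpoint: linear interpolation; highest concentration if not reached. Abbreviation: GI50, concentration required for 50% inhibition of growth.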 The source made the active and inactive calls. No stated cut-off is given here; in the data, active = GI50 up to about 1.1 µM and inactive = higher.

What was measured:
Experiment in all cases: DTP human tumour cell line panel, 48 h
HCC 2998 = test system: HCC 2998
OVCAR-4 = test system: OVCAR-4
M14 = test system: M14
HL-60 = test system: HL-60
A549 = test system: A549
HOP-62 = test system: HOP-62
SK-MEL-28 = test system: SK-MEL-28
CCRF-CEM = test system: CCRF-CEM
SNB-75 = test system: SNB-75
UO-31 = test system: UO-31
786-0 = test system: 786-0
OVCAR-8 = test system: OVCAR-8
SNB-78 = test system: SNB-78
SF-539 = test system: SF-539
NCI-H23 = test system: NCI-H23
SN12C = test system: SN12C
MCF7 = test system: MCF7
SW-620 = test system: SW-620
SK-MEL-5 = test system: SK-MEL-5
SNB-19 = test system: SNB-19
ACHN = test system: ACHN
SK-MEL-2 = test system: SK-MEL-2
DU-145 = test system: DU-145
NCI-H226 = test system: NCI-H226
U-251 = test system: U-251
NCI-H522 = test system: NCI-H522
XF498 = test system: XF498
RXF 393 = test system: RXF 393
Hs-578T = test system: Hs-578T
MDA-MB-231 = test system: MDA-MB-231
HOP-92 = test system: HOP-92
UACC-257 = test system: UACC-257
EKVX = test system: EKVX
CAKI-1 = test system: CAKI-1
DMS-114 = test system: DMS-114
TK-10 = test system: TK-10
OVCAR-3 = test system: OVCAR-3
KM12 = test system: KM12
COLO 205 = test system: COLO 205
K562 = test system: K562
SR = test system: SR
NCI/ADR-RES = test system: NCI/ADR-RES
M19-MEL = test system: M19-MEL
HOP-18 = test system: HOP-18
Malme-3M = test system: Malme-3M
T47D = test system: T47D
OVCAR-5 = test system: OVCAR-5
HCT-116 = test system: HCT-116
SF-268 = test system: SF-268
UACC-62 = test system: UACC-62
HT-29 = test system: HT-29
MOLT-4 = test system: MOLT-4
SF-295 = test system: SF-295
HCT-15 = test system: HCT-15
SK-OV-3 = test system: SK-OV-3
PC-3 = test system: PC-3
NCI-H460 = test system: NCI-H460
MDA-N = test system: MDA-N
LOX IMVI = test system: LOX IMVI
A498 = test system: A498
IGROV-1 = test system: IGROV-1
DMS-273 = test system: DMS-273
BT-549 = test system: BT-549
DLD-1 = test system: DLD-1
KM-20L2 = test system: KM-20L2
RPMI-8226 = test system: RPMI-8226
LXFL 529 = test system: LXFL 529

With Cc1cc(N(CCC#N)CCC#N)ccc1/C=C1N=C(/C=C\c2ccccc2)N(c2ccc(Cl)cc2)C\1=O the GI50 (HCC 2998) was 1.81 µM (inactive), the GI50 (OVCAR-4) was > 39.4 µM (inactive) and the GI50 (M14) was 1.29 µM (inactive). The GI50 (HL-60) was 6.05 µM (inactive), the GI50 (A549) was > 39.9 µM (inactive) and the GI50 (HOP-62) was 5.21 µM (inactive). For the same compound, the GI50 (SK-MEL-28) was 5.46 µM (inactive), the GI50 (CCRF-CEM) was 3.4 µM (inactive) and the GI50 (SNB-75) was > 100 µM (inactive). For the same compound, the GI50 (UO-31) was 7.36 µM (inactive), the GI50 (786-0) was 54.8 µM (inactive) and the GI50 (OVCAR-8) was > 40.8 µM (inactive). The GI50 (SNB-78) was > 100 µM (inactive), the GI50 (SF-539) was 6.71 µM (inactive) and the GI50 (NCI-H23) was 36.6 µM (inactive). For the same compound, the GI50 (SN12C) was > 45 µM (inactive), the GI50 (MCF7) was 29.2 µM (inactive) and the GI50 (SW-620) was 11.6 µM (inactive). The GI50 (SK-MEL-5) was 0.43 µM (active), the GI50 (SNB-19) was > 100 µM (inactive) and the GI50 (ACHN) was 8.32 µM (inactive). For the same compound, the GI50 (SK-MEL-2) was > 54.8 µM (inactive), the GI50 (DU-145) was > 100 µM (inactive) and the GI50 (NCI-H226) was > 100 µM (inactive). The GI50 (U-251) was > 28.6 µM (inactive), the GI50 (NCI-H522) was 24.7 µM (inactive) and the GI50 (XF498) was > 100 µM (inactive). For the same compound, the GI50 (RXF 393) was > 100 µM (inactive), the GI50 (Hs-578T) was > 100 µM (inactive) and the GI50 (MDA-MB-231) was > 100 µM (inactive). The GI50 (HOP-92) was > 95.7 µM (inactive), the GI50 (UACC-257) was > 54.6 µM (inactive) and the GI50 (EKVX) was > 100 µM (inactive). For the same compound, the GI50 (CAKI-1) was > 24.3 µM (inactive), the GI50 (DMS-114) was 2.13 µM (inactive) and the GI50 (TK-10) was > 53.3 µM (inactive). The GI50 (OVCAR-3) was 40.5 µM (inactive), the GI50 (KM12) was 4.52 µM (inactive) and the GI50 (COLO 205) was 0.745 µM (active). For the same compound, the GI50 (K562) was 0.607 µM (active), the GI50 (SR) was > 100 µM (inactive) and the GI50 (NCI/ADR-RES) was > 100 µM (inactive). The GI50 (M19-MEL) was 1.57 µM (inactive), the GI50 (HOP-18) was > 100 µM (inactive) and the GI50 (Malme-3M) was 17.7 µM (inactive). For the same compound, the GI50 (T47D) was > 100 µM (inactive), the GI50 (OVCAR-5) was 22.2 µM (inactive) and the GI50 (HCT-116) was 6.76 µM (inactive). For the same compound, the GI50 (SF-268) was > 22 µM (inactive), the GI50 (UACC-62) was 0.746 µM (active) and the GI50 (HT-29) was 2.11 µM (inactive). For the same compound, the GI50 (MOLT-4) was 25 µM (inactive), the GI50 (SF-295) was 4.57 µM (inactive) and the GI50 (HCT-15) was 0.718 µM. For the same compound, the GI50 (SK-OV-3) was > 87.1 µM (inactive), the GI50 (PC-3) was 0.536 µM (active) and the GI50 (NCI-H460) was 10.8 µM (inactive). The GI50 (MDA-N) was > 100 µM (inactive), the GI50 (LOX IMVI) was 1.01 µM (active) and the GI50 (A498) was > 100 µM (inactive). For the same compound, the GI50 (IGROV-1) was 47.3 µM (inactive), the GI50 (DMS-273) was 0.288 µM (active) and the GI50 (BT-549) was 1.49 µM (inactive).
In the case of CCCC(=O)CC(C)C(=O)C(=O)NC12CC3CC(CC(C3)C1)C2 (stereo unspecified), the GI50 (HCC 2998) is reported as > 100 µM (inactive), the GI50 (OVCAR-4) is reported as > 100 µM (inactive) and the GI50 (M14) is reported as > 100 µM (inactive). For the same compound, the GI50 (HL-60) was > 100 µM (inactive), the GI50 (A549) was > 100 µM (inactive) and the GI50 (HOP-62) was > 100 µM (inactive). The GI50 (SK-MEL-28) was > 100 µM (inactive), the GI50 (CCRF-CEM) was > 100 µM (inactive) and the GI50 (SNB-75) was 97.5 µM (inactive). The GI50 (UO-31) was > 100 µM (inactive), the GI50 (786-0) was > 100 µM (inactive) and the GI50 (OVCAR-8) was > 100 µM (inactive). For the same compound, the GI50 (SNB-78) was > 100 µM (inactive), the GI50 (NCI-H23) was > 100 µM (inactive) and the GI50 (SN12C) was > 100 µM (inactive). For the same compound, the GI50 (SW-620) was > 100 µM (inactive), the GI50 (SK-MEL-5) was > 100 µM (inactive) and the GI50 (DLD-1) was > 100 µM (inactive). For the same compound, the GI50 (SNB-19) was > 100 µM (inactive), the GI50 (ACHN) was > 100 µM (inactive) and the GI50 (SK-MEL-2) was > 100 µM (inactive). For the same compound, the GI50 (NCI-H226) was > 100 µM (inactive), the GI50 (U-251) was > 100 µM (inactive) and the GI50 (NCI-H522) was > 100 µM (inactive). The GI50 (XF498) was > 100 µM (inactive), the GI50 (RXF 393) was > 100 µM (inactive) and the GI50 (KM-20L2) was > 100 µM (inactive). For the same compound, the GI50 (HOP-92) was 22.3 µM (inactive), the GI50 (UACC-257) was > 100 µM (inactive) and the GI50 (EKVX) was > 100 µM (inactive). For the same compound, the GI50 (CAKI-1) was > 100 µM (inactive), the GI50 (TK-10) was > 100 µM (inactive) and the GI50 (OVCAR-3) was > 100 µM (inactive). For the same compound, the GI50 (KM12) was > 100 µM (inactive), the GI50 (COLO 205) was > 100 µM (inactive) and the GI50 (K562) was > 100 µM (inactive). The GI50 (HOP-18) was > 100 µM (inactive), the GI50 (Malme-3M) was > 100 µM (inactive) and the GI50 (OVCAR-5) was > 100 µM (inactive). The GI50 (SF-268) was > 100 µM (inactive), the GI50 (HT-29) was > 100 µM (inactive) and the GI50 (MOLT-4) was > 100 µM (inactive). The GI50 (SF-295) was > 100 µM (inactive), the GI50 (HCT-15) was over 100 µM and the GI50 (RPMI-8226) was > 100 µM (inactive). The GI50 (NCI-H460) was > 100 µM (inactive), the GI50 (LOX IMVI) was > 100 µM (inactive) and the GI50 (DMS-273) was > 100 µM (inactive).
O=C1CC(S(=O)(=O)O)C=C1Nc1cccc(Cl)c1 (stereo unspecified) was tested, and the GI50 (HCC 2998) was > 100 µM (inactive), the GI50 (OVCAR-4) was > 100 µM (inactive) and the GI50 (M14) was > 100 µM (inactive). The GI50 (HL-60) was > 100 µM (inactive), the GI50 (A549) was > 100 µM (inactive) and the GI50 (HOP-62) was > 100 µM (inactive). The GI50 (SK-MEL-28) was > 100 µM (inactive), the GI50 (CCRF-CEM) was > 100 µM (inactive) and the GI50 (SNB-75) was > 100 µM (inactive). For the same compound, the GI50 (UO-31) was > 100 µM (inactive), the GI50 (786-0) was > 100 µM (inactive) and the GI50 (OVCAR-8) was > 100 µM (inactive). The GI50 (SNB-78) was > 100 µM (inactive), the GI50 (SF-539) was > 100 µM (inactive) and the GI50 (NCI-H23) was > 100 µM (inactive). The GI50 (SN12C) was > 100 µM (inactive), the GI50 (SW-620) was > 100 µM (inactive) and the GI50 (SK-MEL-5) was > 100 µM (inactive). For the same compound, the GI50 (DLD-1) was > 100 µM (inactive), the GI50 (SNB-19) was > 100 µM (inactive) and the GI50 (ACHN) was > 100 µM (inactive). The GI50 (SK-MEL-2) was > 100 µM (inactive), the GI50 (LXFL 529) was > 100 µM (inactive) and the GI50 (NCI-H226) was > 100 µM (inactive). For the same compound, the GI50 (U-251) was > 100 µM (inactive), the GI50 (NCI-H522) was > 100 µM (inactive) and the GI50 (XF498) was > 100 µM (inactive). For the same compound, the GI50 (RXF 393) was > 100 µM (inactive), the GI50 (KM-20L2) was > 100 µM (inactive) and the GI50 (HOP-92) was > 100 µM (inactive). For the same compound, the GI50 (UACC-257) was > 100 µM (inactive), the GI50 (EKVX) was > 100 µM (inactive) and the GI50 (CAKI-1) was > 100 µM (inactive). The GI50 (TK-10) was > 100 µM (inactive), the GI50 (OVCAR-3) was > 100 µM (inactive) and the GI50 (KM12) was > 100 µM (inactive). The GI50 (COLO 205) was > 100 µM (inactive), the GI50 (K562) was > 100 µM (inactive) and the GI50 (SR) was > 100 µM (inactive). The GI50 (M19-MEL) was > 100 µM (inactive), the GI50 (HOP-18) was > 100 µM (inactive) and the GI50 (Malme-3M) was > 100 µM (inactive). The GI50 (OVCAR-5) was > 100 µM (inactive), the GI50 (HCT-116) was > 100 µM (inactive) and the GI50 (SF-268) was > 100 µM (inactive). For the same compound, the GI50 (UACC-62) was > 100 µM (inactive), the GI50 (HT-29) was > 100 µM (inactive) and the GI50 (MOLT-4) was > 100 µM (inactive). For the same compound, the GI50 (SF-295) was > 100 µM (inactive), the GI50 (SK-OV-3) was > 100 µM (inactive) and the GI50 (NCI-H460) was > 100 µM (inactive). For the same compound, the GI50 (LOX IMVI) was > 100 µM (inactive), the GI50 (A498) was > 100 µM (inactive) and the GI50 (IGROV-1) was > 100 µM (inactive). The GI50 (DMS-273) was > 100 µM (inactive).
